Data on one molecule can be found in patent US20140161720A1, “TREATMENT OF ANGIOGENIC- OR VASCULAR-ASSOCIATED DISEASES” (THE GENERAL HOSPITAL CORPORATION, priority 2011, published 2014).

“Also recorded” adds a separate entry of the source.

Assay [1] has as its system Rac1. The experiment in a line: Rac1 ubiquitination, Duolink in situ proximity assay in HUVECs. To be noted: HUVEC, lactacystin or MG-132 pretreatment, DAL 10 μM 24 hours. It is filed as cell-based, human. Here is the method: HUVEC cells were treated with 10 μM of DAL for 24 hours and then lysed. A western blot with anti-human Rac1 antibody is shown on top panel while the bottom panel represents a loading control. […] To enhance ubiquitination events, HUVEC cells were pretreated with the proteasome inhibitors lactacystin (2.5 mM) or MG-132 (0.2 mM) for one hour and subsequently treated with DAL (10 μM) of DAL for 24 hours. Duolink in situ was used for the detection of ubiquitinated Rac1 in DAL treated and untreated HUVEC cells. For the two Duolink PLA probes, primary mouse antibodies raised against human Rac1 and primary rabbit anti-ubiquitin were used. Fluorescent spots represent ubiquitinated Rac1. The nuclei with additionally stained DAPI.
However, protein levels of Rac1 were reduced after DAL treatment (FIG. 6B). Next, it was assessed whether DAL can enhance Rac1 ubiquitination and therefore promote or speed up degradation (31-34). For the detection of Rac1 ubiquitination in HUVECs, Rac1-ubiquitin binding in situ was identified using a Duolink molecular proximity assay. In this assay, molecules thought to interact are targeted with fluorescent antibodies in situ, and individual interactions generate a signal detectable by microscopy only if secondary antibodies are located in close proximity to each other. […]

For the next assay, the target named is recombinant purified IDO (Homo sapiens, UniProt P14902). To be noted: cited (He et al., 2008); cited from earlier work.
For assay [2], the target named is T1, Rac1 (Homo sapiens, UniProt P63000).
T1 construct: endogenous in cells; host or cells: HUVEC
Nature of the assay: Rac1 activation pull-down assay (PAK-PBD) in HUVECs. It is filed as cell-based. Conditions: various concentrations 30 minutes, VEGF stimulated. As for the experimental part: Rac1 and cdc42 activities were measured with a Rac1 (BK035) activation assay biochem kit (Cytoskeleton) according to the manufacturer protocol. In brief, human umbilical vein endothelial cells (HUVECs) were bovine brain extract-starved for 12 hours in 1% FBS-EGM (Lonza) and pretreated with various concentrations of DAL for 30 minutes at 37° C. The HUVECs were then stimulated with VEGF at […] for 15 minutes at 37° C. After stimulation, the cells were immediately incubated on ice, washed twice with PBS, and lysed with lysis buffer. The lysates were pre-cleared and added with 15 μl of PAK-PBD beads for pull-down of activated Rac1 or cdc42. After rocking at 4° C. for 1 hour, the beads were washed once and boiled at 100° C. for 2 minutes. The protein lysates were then resolved in a 8-16% gradient gel (Invitrogen) and transferred to a PVDF membrane. Primary antibodies (anti-Rac1, 1:1000, cytoskeleton or anti-cdc42, 1:1000, cell signaling) were added to bind to the protein overnight at 4° C., followed by incubation with HRP-conjugated secondary antibodies. Protein activity was measured by the standard ECL method (Amersham).
Without wishing to be bound by theory, DAL brings about its antivascular effects by destabilizing cell adhesion through the actin cytoskeleton. […] Therefore, potential targets of DAL in signaling pathways involved in actin remodeling were evaluated. […]

Assay [3] relates to zebrafish caudal fin regenerating vessels. Nature of the assay: Caudal fin amputation, blood vessel regeneration. It is filed as in vivo. As for the experimental part: For the regeneration experiments, caudal fins of zebrafish were amputated at approximately the 50% proximal-distal level (21). The amputated fish were kept in individual 250-ml fish tanks, and at least five fish were used in each group. Staging for normal blood vessel regeneration was carried out at 25° C. with TG(fli1:EGFP)y1 fish, with the same fin ray and vessels of each fish was photographed at different time intervals during the course of the time-lapse study.
To examine whether DAL has a similar antivascular effect on neovasculature in adult zebrafish, neovascularization was induced by amputating the caudal fin at the ˜50% proximal-distal level and fin rays and vessels were imaged from each fish over time. In control zebrafish caudal fins, amputated blood vessels healed their ends by 24 h post-amputation and then reconnected arteries and veins through anastomosis, with blood flow resuming at wound sites by 48 h after amputation (FIG. 2B).

In the next assay the test system is HUVEC. Nature of the assay: Scratch wound-healing motility assay. The assay is classed as cell-based, human. Conditions: HUVEC monolayer, DAL 5 μM, 24 hours after wounding. Here is the method: For F-actin visualization, HUVECs were plated and treated with saline or DAL (10 μM) for three hours. After fixing and permeabilizing these cultured cells, the cells were subsequently stained with phalloidin. […] Existing cordlike structures, when exposed to 10 μM of DAL for 3 hours, were also disrupted. […] HUVEC monolayers were disrupted mechanically with a pipette tip and the migration of cells to “heal” the wound was monitored using microscopy.
To assess whether DAL affects EC functions, in vitro models of vascular network formation from HUVECs were used. After overnight cultivation in matrigel, HUVECs spontaneously assemble into cord-like structures that resemble vascular networks. […] Since DAL affects actin cytoskeleton assembly, the effect of DAL on cell motility was next assessed. A scratch wound assay was utilized to study HUVEC motility based on the healing rate of a wounded monolayer.

In the next assay the test system is Rac1 mRNA. Nature of the assay: Rac1 mRNA expression by quantitative PCR. The assay is classed as cell-based.

Sequence of recombinant purified IDO (P14902 whole entry): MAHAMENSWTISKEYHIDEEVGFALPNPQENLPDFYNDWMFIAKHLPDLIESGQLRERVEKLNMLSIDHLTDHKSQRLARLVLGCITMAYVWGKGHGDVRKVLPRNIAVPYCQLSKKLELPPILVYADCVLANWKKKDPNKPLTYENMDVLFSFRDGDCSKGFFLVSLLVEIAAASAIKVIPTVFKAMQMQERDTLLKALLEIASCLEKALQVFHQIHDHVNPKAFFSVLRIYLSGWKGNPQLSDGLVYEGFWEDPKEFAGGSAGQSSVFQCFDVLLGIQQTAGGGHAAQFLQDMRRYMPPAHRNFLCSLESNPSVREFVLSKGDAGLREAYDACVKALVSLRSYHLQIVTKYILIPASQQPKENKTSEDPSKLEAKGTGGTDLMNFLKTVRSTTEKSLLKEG

`CC1(C)C=CC2=C(O1)C(=O)c1ccccc1C2=O` [DAL, dehydro-alpha-lapachone]: the Rac1 ubiquitination entry in the assay with Rac1 [1] is “more ubiquitinated Rac1 protein; also recorded: increases”. Further, the “mode of IDO inhibition with respect to L-tryptophan” value at recombinant purified IDO is on record as “non-competitive”. Besides, the Rac1 activity result at Rac1 [2] was “decreased Rac1 activity in a concentration-dependent manner”. Further, in assay [3] (9 days after amputation), the “anastomotic bridges at the amputation plane” value is reported as “did not find such bridges”. For the same molecule, the “anastomosis and plexus formation of regenerating vessels” value in assay [3] (caudal fin after amputation) was “defects in anastomosis and plexus formation”. Also, in the assay on HUVEC, the “wound healing / cell motility” value was “did not move and failed to close the wound; also recorded: slowed healing”. In the assay on Rac1 mRNA, the “expression levels of Rac1 mRNA” value is reported as “did not change”.
